Laboratory results reported in PMC5686155, “Crystal structures of the mitochondrial deacylase Sirtuin 4 reveal isoform-specific acyl recognition and regulation features” (Nature Communications, 2017).
Several values for one entry are separate records, joined by “and”; a condition that tells them apart may be missing. Equal entries are not always repeated.

How the values were obtained:
hSirt4 [1] = biological target: T1, hSirt4 (Homo sapiens, UniProt Q9Y6E7); assay: Coupled continuous enzymatic assay monitoring NAM release from NAD+ (Sirt4 deacylation); assay type: biochemical; conditions: hSirt4 wild-type
T1 construct: hSirt4(25–314) in pQE30 coding for an N-terminal His6-tag; His6 (N); made in house; host or cells: Escherichia coli CodonPlus(DE3)
T1 sequence (Q9Y6E7 25-314): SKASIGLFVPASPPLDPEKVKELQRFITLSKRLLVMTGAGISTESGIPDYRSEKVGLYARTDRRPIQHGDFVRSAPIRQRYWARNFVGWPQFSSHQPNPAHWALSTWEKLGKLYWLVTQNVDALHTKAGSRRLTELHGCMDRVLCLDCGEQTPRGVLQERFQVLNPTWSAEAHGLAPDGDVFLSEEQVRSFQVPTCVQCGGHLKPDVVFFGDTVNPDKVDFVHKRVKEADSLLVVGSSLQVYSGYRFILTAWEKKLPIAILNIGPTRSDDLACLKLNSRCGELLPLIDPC
Description: The seven mammalian sirtuins vary in their sequence and acyl preferences[16],[19]. […] We therefore asked whether other acyl modifications would yield deacylation efficiencies expected for a physiologically dominant Sirt4 activity.
(§1) The coupled continuous assay was performed as reported. […] Reactions were monitored in microplates at room temperature for 1 h through absorption measurements at 340 nm in a LAMBDAScan plate reader (MWG Biotech, Ebersberg, Germany).

xSirt4 Wild-type = assay: Coupled continuous assay, xSirt4 wild-type; assay type: biochemical, Xenopus tropicalis; conditions: HMG-CPS1 peptide substrate, n = 2
Description: The coupled continuous assay was performed as reported. Briefly, assays in 20 mM sodium phosphate buffer pH 7.8 contained 5 µM hSirt4 or 3–5 µM xSirt4, 0.05 mg ml^−1 nicotinamidase, 2 U ml^–1 GDH, 3.3 mM a-ketoglutarate, 0.2 mM NADPH, 10% DMSO, and NAD^+ at 2 mM or as indicated, and substrate peptide at 500 µM or as indicated. Reactions were monitored in microplates at room temperature for 1 h through absorption measurements at 340 nm in a LAMBDAScan plate reader (MWG Biotech, Ebersberg, Germany).

xSirt4 Delta 198–203 = assay: Coupled continuous assay, xSirt4 variant; assay type: biochemical, Xenopus tropicalis; conditions: Sirt4 loop deletion variant (198-203), HMG-CPS1 peptide substrate; n = 2
Description: For xSirt4(32–315) and zSirt4(29–310) eluted from the NiNTA material, the buffer was changed to 50 mM Tris/HCl pH 7.5, 200 mM NaCl, (supplemented with 20% glycerol for xSirt4) in a HiPrep Desalting column and subjected to Senp2-proteolysis for 30 min on ice. The protein was loaded on a HisTrap HP 1 mL column (GE Healthcare) and eluted with 50 mM Tris/HCl pH 7.5, 200 mM NaCl, 30–50 mM imidazole. It was subsequently subjected to gel filtration on a Superdex 75 10/300 GL (xSirt4) or Superdex 200 10/300 GL (zSirt4) column (both GE Healthcare) in 25 mM Tris/HCl pH 7.5, 150 mM NaCl (+20 % glycerol for xSirt4), concentrated in a Microsep concentrator, flash-frozen in liquid nitrogen, and stored at −80 °C. xSirt4 single-site variants were generated using the QuickChange protocol (see Supplementary Table 1 for primer sequences) and verified by DNA sequencing, and the proteins were produced as described for wild-type xSirt4.
as §1

xSirt4 = assay: Thermal denaturation shift assay; assay type: binding, Xenopus tropicalis; conditions: 3 µM xSirt4, SYPRO orange, 20 to 73 °C; n = 2
Description: Thermal shift assays were performed in 96-well PCR plates using 3 µM xSirt4 (32–315) or 3 µM zSirt4 (29–310) and SYPRO orange (Thermo Fisher, Waltham, MA, USA) covered with 15 µL mineral oil. Heating and fluorescence measurements were performed in a FluoDia T70 with 1 K steps from 20 to 73 °C (excitation: 465 nm, emission: 580 nm). The data were analyzed in GraFit (Erithacus Software Ltd, Horley, UK) by nonlinear fitting using a two state model.

sirtuins = conditions: cited from earlier work
Excerpt: All sirtuins share NAD^+ as an essential cosubstrate, but the Sirt4 nucleotide binding site differs from those of other isoforms. The Sirt4-loop tightens the entry of the C-site, where the conserved Asp145 recognizes the NAM moiety of NAD^+ [25], and its tip around Pro200 will have to rearrange slightly to allow productive NAD^+ binding (Supplementary Fig. 3c), consistent with a switch function.

hSirt4 [2] = biological target: T1, hSirt4; assay: HMG-FdL (Fluor-de-Lys-like) de-HMG-ylation assay; assay type: biochemical; conditions: HMG-FdL assay, 1 µM hSirt4, 500 µM HMG-FdL substrate, 500 μM NAD+, 37 °C, 20 min; fluorescence; n = 2; NADH corrected through spiking controls
Description: As a convenient and complementary, fluorescence-based alternative to the coupled enzymatic assay with HMG-peptides, we established substrate and assay corresponding to the popular “Fluor-de-Lys” (FdL) deacylation assays. […] We then employed the FdL-like Sirt4 assay for studying the effects of NAM and NADH, which are not compatible with the coupled assay. […] After 20 min, developer solution (2 mM NAM and 10 mg mL^−1 trypsin) in assay buffer was added 1:1 and samples were incubated for 45 min at room temperature. Fluorescence was measures using a FluoDia T70 with excitation wavelength 365 nm and emission wavelength 465 nm.

Sirt4 = biological target: T2, Sirt4 (Homo sapiens, UniProt Q9Y6E7); assay: MS-based Sirt4 inhibition assay with HMG-CPS1 substrate; assay type: biochemical; conditions: n = 2 (Supplementary Fig. 4b)
T2 construct: hSirt4(25–314) in pQE30 coding for an N-terminal His6-tag; His6 (N); made in house; host or cells: Escherichia coli CodonPlus(DE3)
T2 sequence (Q9Y6E7 25-314): T1 sequence (Q9Y6E7 25-314)
Description: For MS and UV analyzes of deacylation reactions, samples were prepared as described for the coupled continuous assay, stopped by mixing 1:1 with 0.5% TFA after 0 and 60 min, diluted to 20 µM peptide using 0.1% FA, and analyzed by HPLC-separation using a Shimadzu Prominence UFLC (Shimadzu, Duisburg, Germany) coupled to ESI-MS and UV detection. Samples were washed on a Piccolo Proto 200 C4 5 μm 2.5 × 0.5 mm trap column (Higgins Analytical, Mountain View, California) and subsequently subjected to a Jupiter C4 5 μm 300 Å 150 × 1 mm analytical column (Phenomenex, Torrance, California) for reversed phase separation, with 99.9% H2O, 0.1% TFA as buffer A and 99.9% ACN, 0.1% TFA as buffer B. Peptides were eluted over a 20 min gradient from 1 to 55% buffer B, followed by 1 min from 55 to 90% buffer B with 70 µL min^−1 flow-rate. UV-detection was done using a Shimadzu SPD-20A detector at 280 nm. MS analysis was performed by ESI-TOF-MS on an AB Sciex TripleTOF 5600+ mass spectrometer (Sciex, Darmstadt, Germany) with a DuoSpray Ion Source using the following settings: floating voltage of 5500 V and declustering potential of 100 with one TOF experiment summing over four time bins. We detected in a mass range from 300 to 2500 m/z. […]

other sirtuins = conditions: cited from earlier work

SMILES | K M (NAD+ titration) (hSirt4 [1]) [µM] | K M (NAD+ titration) (xSirt4 Wild-type) [µM] | K M (NAD+ titration) (xSirt4 Delta 198–203) [µM] | Sirt4 stabilization in thermal denaturation shift experiments (xSirt4) | K M(NAD+) range reported for sirtuins (sirtuins) [µM] | IC50 (hSirt4 [2]) [µM] | IC50 (Sirt4) [µM] | IC50 (other sirtuins; other sirtuin isoforms, read-out: IC 50 on other sirtuins) | Ki (other sirtuins; read-out: K i on other sirtuin isoforms) [µM]
NC(=O)c1ccc[n+]([C@@H]2O[C@H](COP(=O)([O-])OP(=O)(O)OC[C@H]3O[C@@H](n4cnc5c(N)ncnc54)[C@H](O)[C@@H]3O)[C@@H](O)[C@H]2O)c1 [NAD^+] | 62 ± 14 | 70 ± 14 | 66 ± 9 | significant Sirt4 stabilization | 14 to 600 |  |  |  | 
NC(=O)C1=CN([C@@H]2O[C@H](COP(=O)(O)OP(=O)(O)OC[C@H]3O[C@@H](n4cnc5c(N)ncnc54)[C@H](O)[C@@H]3O)[C@@H](O)[C@H]2O)C=CC1 [NADH] |  |  |  |  |  | 126 ± 12 | 142 ± 54 | 1300 to 27900 µM and ≥ 1300 µM | ≥ 700
